The values below come from ChEMBL document CHEMBL3259799, “New melatonin-N,N-dibenzyl(N-methyl)amine hybrids: potent neurogenic agents with antioxidant, cholinergic, and neuroprotective properties as innovative drugs for Alzheimer's disease” (J Med Chem, 2014).

What is called IC50 is the point on the concentration scale where inhibition reaches its midpoint. Lower therefore signals inhibition by little substance. In general, inhibition refers to the drop in the measured response relative to a control, in per cent.

Data set [1] can be described thus: Permeability of the compound by PAMPA. The settings on record: read-out: permeability. Format: physicochemical. (In PAMPA a lipid-coated filter parts donor from acceptor wells.)
The nature of data set [2]: Antioxidant activity assessed as oxygen radical absorbance capacity after 15 mins fluorescence assay relative to trolox. Format: functional.
A short description of data set [3]: Cytotoxicity against human SH-SY5Y cells assessed as cell viability at 1 uM after 24 hrs by LDH assay relative to control. Type of data set: cell-based. The settings on record: read-out: Activity.
Data set [4] relates to SH-SY5Y. The data set is described as follows: Neuroprotective activity in human SH-SY5Y cells assessed as protection from rotenone/oligomycin A-induced mitochondrial ROS at 1 uM incubated for 24 hrs prior to rotenone/oligomycin A challenge measured after 24 hrs by LDH assay. Format: functional.
A further data set has as its target Acetylcholinesterase (Homo sapiens, UniProt P22303).
Data set [5] concerns SH-SY5Y. Kind of data set: Cytotoxicity against human SH-SY5Y cells at 10 uM after 48 hrs by MTT assay relative to control. Type of data set: cell-based. A general note: Tetrazolium dyes change colour on reduction, which living cells bring about.
Data set [6] has as its system SH-SY5Y. The data set is described as follows: Cytotoxicity against human SH-SY5Y cells at 10 uM after 48 hrs by LDH assay relative to control. Type of data set: cell-based.
For data set [7], the species on record is Rattus norvegicus. Kind of data set: Neurogenic activity in Wistar rat Primary neural stem cells assessed as cell maturation by measuring TuJ1 at 10 uM after 48 hrs by DAPI staining-based immunohistochemistry. Type of data set: functional.
Data set [8] is filed under the species Rattus norvegicus. Kind of data set: Neurogenic activity in Wistar rat Primary neural stem cells assessed as cell maturation by measuring MAP-2 at 10 uM after 48 hrs by DAPI staining-based immunohistochemistry. Format: functional.
The next data set is filed under the species Homo sapiens. Kind of data set: Inhibition of human BuChE using butyrylthiocholine as substrate at 10 uM incubated for 5 mins prior to substrate addition measured after 5 mins by Ellman method.

Active and inactive are the calls of the source. The rule behind the calls is not given here.

Chain of Acetylcholinesterase (P22303 whole entry): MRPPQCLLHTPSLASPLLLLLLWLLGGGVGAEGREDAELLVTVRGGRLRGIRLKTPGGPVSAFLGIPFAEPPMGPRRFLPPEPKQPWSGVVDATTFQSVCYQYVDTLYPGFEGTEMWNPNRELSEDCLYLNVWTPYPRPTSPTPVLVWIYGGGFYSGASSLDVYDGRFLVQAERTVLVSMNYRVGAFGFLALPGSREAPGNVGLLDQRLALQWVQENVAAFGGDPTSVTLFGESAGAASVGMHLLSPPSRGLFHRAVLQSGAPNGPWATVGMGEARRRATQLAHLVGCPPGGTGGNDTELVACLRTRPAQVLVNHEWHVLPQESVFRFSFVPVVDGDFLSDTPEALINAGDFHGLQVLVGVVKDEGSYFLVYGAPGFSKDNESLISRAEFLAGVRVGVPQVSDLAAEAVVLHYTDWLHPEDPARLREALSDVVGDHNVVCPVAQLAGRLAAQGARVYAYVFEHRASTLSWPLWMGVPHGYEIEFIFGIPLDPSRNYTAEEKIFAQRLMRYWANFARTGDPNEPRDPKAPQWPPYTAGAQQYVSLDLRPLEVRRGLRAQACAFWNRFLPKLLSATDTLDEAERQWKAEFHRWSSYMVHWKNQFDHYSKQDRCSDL
Description for Acetylcholinesterase: Inhibition of human recombinant AchE using acetylthiocholine iodide as substrate incubated for 5 mins prior to substrate addition measured after 5 mins by Ellman method

Turning to `COc1cccc(CN(C)Cc2ccc(C(=O)NCCc3c[nH]c4ccccc34)cc2)c1`, in data set [1], the Papp was found to be 8.8 ×10⁻⁶ cm/s. Also, the Activity was 2.7 in data set [2] and 12% in the data set with SH-SY5Y [4]. The viability at 24 h, 1 µM in data set [3] was 100%. Further, the IC50 at Acetylcholinesterase is 3.8 µM.

For the compound `COc1ccc2[nH]cc(CCNC(=O)c3ccc(CN(C)Cc4ccccc4)cc3)c2c1`, the Papp in data set [1] was found to be 7.1 ×10⁻⁶ cm/s. Moreover, the Activity was 2.5 in [2], 36% in the data set on SH-SY5Y [4], “Non-toxic” with SH-SY5Y [5] and “Non-toxic” in the data set with SH-SY5Y [6]. For the same compound, the viability at 24 h, 1 µM in [3] was 100%. For the same compound, the result in the data set listed under Rattus norvegicus [7] and in the data set listed under Rattus norvegicus [8] was Active. The compound also came in with an IC50 against Acetylcholinesterase of 6.1 µM.

As to `COc1ccccc1CN(C)Cc1ccc(C(=O)NCCc2c[nH]c3ccccc23)cc1`, the Papp in [1] was 8.8 ×10⁻⁶ cm/s. The Activity in data set [2] is 2.9; with SH-SY5Y [4], 12%; in the data set on SH-SY5Y [5], “Non-toxic”; in the data set with SH-SY5Y [6], “Non-toxic”. The viability at 24 h, 1 µM in [3] came to 100%. For the same compound, the outcome in the data set listed under Rattus norvegicus [7] and in the data set filed under Rattus norvegicus [8] was Active. The compound further gave an IC50 at Acetylcholinesterase of 4.7 µM.

As to `COc1ccc2c(CCNC(=O)c3ccc(CN(C)Cc4ccccc4)cc3)c[nH]c2c1`, in [1], the Papp came to 7.2 ×10⁻⁶ cm/s. The Activity is 1.5 in [2] and 12% with SH-SY5Y [4]. The viability at 24 h, 1 µM in data set [3] worked out at 100%. Moreover, the IC50 at Acetylcholinesterase came to 4.1 µM.

Turning to `COc1ccc2[nH]cc(CCNC(=O)c3ccc(CN(C)Cc4ccccc4Cl)cc3)c2c1`, the inhibition in the data set listed under Homo sapiens worked out at 37%. In data set [1], the Papp was 5.9 ×10⁻⁶ cm/s. Moreover, the values for the Activity (in data set [2]; in the data set on SH-SY5Y [4]) were 2.5 and 27%, respectively. In addition, the viability at 24 h, 1 µM in data set [3] stood at 100%. On Acetylcholinesterase, 2.6 µM corresponded to half-maximal inhibition (IC50).

Compound `COc1ccc2[nH]cc(CCNC(=O)c3ccc(CN(C)Cc4ccccc4OC)cc3)c2c1` came in with an inhibition in the data set filed under Homo sapiens of 47%. In addition, the Papp in [1] worked out at 9.9 ×10⁻⁶ cm/s. The Activity was determined as 2.4 in [2] and 12% in the data set on SH-SY5Y [4]. In addition, the viability at 24 h, 1 µM in data set [3] was determined as 100%. Also, on Acetylcholinesterase, the IC50 came out at 5.4 µM.

For the compound `COc1ccc2[nH]cc(CCNC(=O)c3ccc(CN(C)Cc4cccc(Cl)c4)cc3)c2c1`, the inhibition in the data set filed under Homo sapiens came out at 38%. Moreover, in [1], the Papp stood at 7.9 ×10⁻⁶ cm/s. The Activity came out at 2.6 in [2] and 12% with SH-SY5Y [4]. For the same compound, in [3], the viability at 24 h, 1 µM worked out at 100%. Besides, on Acetylcholinesterase, the IC50 turned out to be 5.6 µM.

On to `CC(=O)NCCc1c(Cc2ccccc2)[nH]c2ccccc12`, for which the result in the data set listed under Rattus norvegicus [7] and in the data set listed under Rattus norvegicus [8] was inactive.

With `CN(Cc1ccc(C(=O)NCCc2c[nH]c3ccccc23)cc1)Cc1ccccc1Cl`, the inhibition in the data set listed under Homo sapiens is 38%. In addition, the Papp in [1] came to 5.8 ×10⁻⁶ cm/s. Besides, the Activity in [2] was found to be 2.8; in the data set with SH-SY5Y [4], 12%. Besides, the viability at 24 h, 1 µM in data set [3] was determined as 100%. In addition, the IC50 at Acetylcholinesterase came to 3.8 µM.

As to `COc1cccc(CN(C)Cc2ccc(C(=O)NCCc3c[nH]c4ccc(OC)cc34)cc2)c1`, in the data set listed under Homo sapiens, the inhibition came to 45%. Also, in [1], the Papp worked out at 8.7 ×10⁻⁶ cm/s. Further, the Activity in data set [2] is 2.5; with SH-SY5Y [4], 40%; with SH-SY5Y [5] it was “Non-toxic”; with SH-SY5Y [6] it was “Non-toxic”. Besides, the viability at 24 h, 1 µM in [3] stood at 100%. For the same compound, the outcome in the data set filed under Rattus norvegicus [7] and in the data set filed under Rattus norvegicus [8] was Active. Besides, the midpoint of inhibition on Acetylcholinesterase, the IC50, lay at 6.8 µM.

In the case of `COc1ccc2c(CCNC(=O)c3ccc(CN(C)Cc4cccc(Cl)c4)cc3)c[nH]c2c1`, the inhibition in the data set filed under Homo sapiens was found to be 22%. Besides, the Papp in data set [1] came out at 7.9 ×10⁻⁶ cm/s. Besides, the Activity in [2] is 1.8; in the data set with SH-SY5Y [4], 12%. The viability at 24 h, 1 µM in [3] was 100%. 2.1 µM corresponded to half-maximal inhibition against Acetylcholinesterase (IC50).

For the compound `COc1ccc2[nH]cc(CCNC(C)=O)c2c1`, the Activity in [2] is 2.4. Further, the result in the data set listed under Rattus norvegicus [7] and in the data set filed under Rattus norvegicus [8] was Active.

As for `CN(Cc1ccccc1)Cc1ccc(C(=O)NCCc2c[nH]c3ccccc23)cc1`, the Papp in data set [1] is 7.4 ×10⁻⁶ cm/s. Also, the Activity in data set [2] turned out to be 3.2; with SH-SY5Y [4], 12%. Moreover, in [3], the viability at 24 h, 1 µM amounted to 100%. In addition, the midpoint of inhibition on Acetylcholinesterase, the IC50, lay at 1.9 µM.

In the case of `CN(Cc1ccccc1)Cc1ccc(C(=O)NCCc2c[nH]c3ccc(O)cc23)cc1`, the Papp in data set [1] amounted to 5 ×10⁻⁶ cm/s. Besides, the values for the Activity (in data set [2]; with SH-SY5Y [4]) were 4.3 and 12%, respectively. Moreover, the viability at 24 h, 1 µM in data set [3] was 100%. Besides, half-maximal inhibition on Acetylcholinesterase (IC50) was put at 4.2 µM.

The compound `CN(Cc1ccc(C(=O)NCCc2c[nH]c3ccccc23)cc1)Cc1cccc(Cl)c1` displayed an inhibition in the data set listed under Homo sapiens of 38%. Besides, the Papp in [1] was 7.1 ×10⁻⁶ cm/s. Moreover, the figures for the Activity (in data set [2]; in the data set with SH-SY5Y [4]) were 2.9 and 12%, respectively. In addition, in data set [3], the viability at 24 h, 1 µM was 100%. This compound also came in with an IC50 against Acetylcholinesterase of 5.1 µM.

Regarding `CN(Cc1ccccc1)Cc1ccc(C(=O)NCCc2c[nH]c3cc(F)ccc23)cc1`, in data set [1], the Papp was found to be 6.6 ×10⁻⁶ cm/s. Besides, the Activity came to 2.1 in [2] and 12% with SH-SY5Y [4]. The viability at 24 h, 1 µM in data set [3] turned out to be 100%. On Acetylcholinesterase, this compound showed an IC50 of 2.5 µM.
